From patent US5545625A, “Preventing conversion of citrulline to argininosuccinate to limit pathological nitric oxide overproduction” (The Medical College of Wisconsin Research Foundation, Inc., priority 1994, dated 1996)

Test system: nitric oxide synthase
Assay: Nitric oxide synthase (NOS) activity of cytosol of rat aortic smooth muscle cells induced with LPS/interferon-gamma in presence of test agent (Example I)
Type: cell-based
Conditions: mithramycin 0.001 to 10 μg/ml with LPS 30 μg/ml plus interferon-gamma 50 ng/ml, 24 hours; FIG. 1
Description: Aortic smooth muscle cells were cultured by explanting segments of the medial layer of aortae from adult male Fischer 344 rats. Aortae were removed aseptically and freed of adventitial and endothelial cells by scraping both the lumenal and abluminal surfaces. Medial fragments (1-2 mm) were allowed to attach to dry Primaria 25 cm^2 tissue culture flasks (Falcon; Oxnard, Calif.) which were kept moist with growth medium until cells emerged. Cultures were fed twice weekly with medium 199 containing 10% fetal bovine serum, 25 mM HEPES, 2 mM L-glutamine, 40 μg/ml endothelial cell growth supplement (Biomedical Technologies; Stoughton, Mass.) and 10 μg/ml gentamycin (GIBCO; Grand Island, N.Y.). When primary cultures became confluent, they were passaged by trypsinization and the explants were discarded. Cells in passage 10-15 were seeded at 20,000/well in 96-well plates. […]
Nitric oxide formation by smooth muscle cell cytosol was measured using a spectrophotometric kinetic microplate assay based on the increase in A405 accompanying the oxidation of Fe^2+ -myoglobin by nitric oxide. […] Assays were performed in triplicate with A405 recorded for each sample every 18 seconds for a period of 15 minutes. The rate of nitric oxide synthesis was calculated from the rate of increase in A405 by linear regression analysis. […]

SMILES: COC(C(=O)C(O)C(C)O)C1Cc2cc3cc(OC4CC(OC5CC(O)C(O)C(C)O5)C(O)C(C)O4)c(C)c(O)c3c(O)c2C(=O)C1OC1CC(OC2CC(OC3CC(C)(O)C(O)C(C)O3)C(O)C(C)O2)C(O)C(C)O1 (stereo not shown) [mithramycin]
- nitric oxide synthase activity: blocks argininosuccinate synthetase activity as well as nitric oxide synthase activity
